Measurements reported in publication PMC6199744, “Development of Chemical Proteomics for the Folateome and Analysis of the Kinetoplastid Folateome” (ACS Infectious Diseases, 2018).
Where two headings read alike, the source gives them in different places.

Key:
Assay type in all cases: binding
[1] = target: T1, HeLa cell extract proteins (Homo sapiens, UniProt Q9UIA9); conditions: HeLa; protein XPO7
T1 construct: endogenous in cells; host or cells: HeLa cell extract
T1 sequence (Q9UIA9 1-1087): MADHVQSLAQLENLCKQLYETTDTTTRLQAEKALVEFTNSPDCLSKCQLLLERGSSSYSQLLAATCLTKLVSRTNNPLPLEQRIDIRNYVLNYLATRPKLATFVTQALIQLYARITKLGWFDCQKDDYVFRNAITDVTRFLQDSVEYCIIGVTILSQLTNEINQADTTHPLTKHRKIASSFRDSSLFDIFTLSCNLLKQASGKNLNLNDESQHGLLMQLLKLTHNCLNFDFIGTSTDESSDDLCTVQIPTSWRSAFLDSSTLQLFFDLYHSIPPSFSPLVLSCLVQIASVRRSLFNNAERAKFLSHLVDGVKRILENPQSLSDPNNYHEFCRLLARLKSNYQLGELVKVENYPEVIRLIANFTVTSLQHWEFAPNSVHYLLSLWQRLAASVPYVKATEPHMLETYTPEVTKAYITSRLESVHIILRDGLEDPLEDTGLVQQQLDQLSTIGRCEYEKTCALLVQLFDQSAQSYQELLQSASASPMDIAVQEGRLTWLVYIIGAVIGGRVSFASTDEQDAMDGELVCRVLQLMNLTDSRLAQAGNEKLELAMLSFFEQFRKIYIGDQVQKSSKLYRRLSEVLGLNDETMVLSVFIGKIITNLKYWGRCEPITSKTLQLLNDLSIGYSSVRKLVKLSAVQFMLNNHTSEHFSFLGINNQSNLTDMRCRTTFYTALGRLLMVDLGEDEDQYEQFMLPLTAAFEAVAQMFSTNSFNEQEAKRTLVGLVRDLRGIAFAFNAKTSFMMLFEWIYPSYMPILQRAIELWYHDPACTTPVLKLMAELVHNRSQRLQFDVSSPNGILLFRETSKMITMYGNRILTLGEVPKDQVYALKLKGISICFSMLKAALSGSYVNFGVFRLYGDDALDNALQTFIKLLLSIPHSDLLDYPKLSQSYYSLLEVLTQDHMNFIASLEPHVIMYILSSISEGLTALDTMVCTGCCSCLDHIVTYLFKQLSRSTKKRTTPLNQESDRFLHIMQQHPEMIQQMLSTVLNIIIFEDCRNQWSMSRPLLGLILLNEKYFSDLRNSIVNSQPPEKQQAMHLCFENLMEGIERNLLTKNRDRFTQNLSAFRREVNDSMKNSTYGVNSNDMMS

[2] = target: T2, HeLa cell extract proteins (Homo sapiens, UniProt P60660); conditions: HeLa; protein MYL6
T2 construct: endogenous in cells; host or cells: HeLa cell extract
T2 sequence (P60660 1-151): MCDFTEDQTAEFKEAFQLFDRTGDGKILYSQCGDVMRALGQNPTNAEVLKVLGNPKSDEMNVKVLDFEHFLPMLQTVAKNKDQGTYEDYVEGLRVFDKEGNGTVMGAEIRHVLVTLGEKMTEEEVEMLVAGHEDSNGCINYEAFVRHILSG

[3] = target: T3, HeLa cell extract proteins (Homo sapiens, UniProt P10619)
T3 construct: endogenous in cells; host or cells: HeLa cell extract
T3 sequence (P10619 29-480): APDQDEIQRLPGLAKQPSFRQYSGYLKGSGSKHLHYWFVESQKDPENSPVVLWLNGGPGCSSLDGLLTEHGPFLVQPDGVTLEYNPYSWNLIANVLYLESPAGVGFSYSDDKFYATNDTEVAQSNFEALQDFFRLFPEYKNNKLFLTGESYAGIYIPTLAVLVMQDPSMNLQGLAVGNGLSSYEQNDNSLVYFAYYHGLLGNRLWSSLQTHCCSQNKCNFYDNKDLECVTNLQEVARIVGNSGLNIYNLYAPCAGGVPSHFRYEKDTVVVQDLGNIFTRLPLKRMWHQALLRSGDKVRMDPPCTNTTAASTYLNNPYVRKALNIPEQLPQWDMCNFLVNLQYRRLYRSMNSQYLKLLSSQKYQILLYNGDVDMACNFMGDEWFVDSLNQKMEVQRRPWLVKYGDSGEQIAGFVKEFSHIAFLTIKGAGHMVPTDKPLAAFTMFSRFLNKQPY

Compound | fold changes relative to vehicle control [1] | fold changes relative to vehicle control [2] | fold changes relative to vehicle control [3] | fold changes relative to vehicle control ([3]; HeLa, protein CTSA)
Nc1nc2cccc(-c3ccccc3)c2n1Cc1ccc(Cl)c(Cl)c1 [compound 3] | 0.98 | 1.11 | – | –
Nc1nc2[nH]cc(CCc3ccc(C(=O)N[C@@H](CCC(=O)O)C(=O)O)cc3)c2c(=O)[nH]1 [PTX, pemetrexed] | – | – | 0.77 | –
Nc1nc2c(c(=O)[nH]1)N(C=O)C(CNc1ccc(C(=O)N[C@@H](CCC(=O)O)C(=O)O)cc1)CN2 (stereo partly shown) [LEU, leucovorin] | – | – | – | 1.01
CCCCCCOc1cccc(Cc2cnc(N)nc2N)c1 [compound 2] | 1.28 | 1.3 | – | –
NCCOCCOCC(=O)Nc1nc2ncc(CNc3ccc(C(=O)NC(CCC(=O)O)C(=O)O)cc3)nc2c(=O)[nH]1 (stereo not shown) [compound 6] | – | – | – | 0.87
CCCCCCOc1ccc(Cc2cnc(N)nc2N)cc1 [compound 1] | 0.88 | 1.14 | – | –
NCCCNc1ccc(C(=O)NC(CCC(=O)O)C(=O)O)cc1 (stereo not shown) [compound 7] | – | – | – | 1.13
